Assay [1] concerns the target Focal adhesion kinase 1 (Mus musculus) (UniProt P34152). Nature of the assay: Inhibition of FAK phosphorylation at Tyr397 residue in mouse 4T1 cells harbouring mCherry red fluorescent protein at 0.1 to 1 uM incubated for 1 hr by immunoblotting analysis. The class given is cell-based. As to conditions: dose 0.1-1 µM. In general terms: Immunoblotting shows a protein as a band on a membrane.

For assay [2], the system named is 4T1. The assay is described as follows: Inhibition of Src phosphorylation at Tyr416 residue in mouse 4T1 cells harbouring mCherry red fluorescent protein incubated for 1 hr by immunoblotting analysis. The class given is cell-based. To be noted: dose 0.1-1 µM.
Assay [3] concerns 4T1. The assay is described as follows: Inhibition of cell adhesion to fibronectin in mouse 4T1 cells at 0.4 uM incubated for 4 hrs by […]. In kind it is functional, cell-based.

The source made the active and inactive calls. The calls are words filed in the database; no cut-off is given here.

Sequence of Focal adhesion kinase 1 (Mus musculus) (P34152 whole entry): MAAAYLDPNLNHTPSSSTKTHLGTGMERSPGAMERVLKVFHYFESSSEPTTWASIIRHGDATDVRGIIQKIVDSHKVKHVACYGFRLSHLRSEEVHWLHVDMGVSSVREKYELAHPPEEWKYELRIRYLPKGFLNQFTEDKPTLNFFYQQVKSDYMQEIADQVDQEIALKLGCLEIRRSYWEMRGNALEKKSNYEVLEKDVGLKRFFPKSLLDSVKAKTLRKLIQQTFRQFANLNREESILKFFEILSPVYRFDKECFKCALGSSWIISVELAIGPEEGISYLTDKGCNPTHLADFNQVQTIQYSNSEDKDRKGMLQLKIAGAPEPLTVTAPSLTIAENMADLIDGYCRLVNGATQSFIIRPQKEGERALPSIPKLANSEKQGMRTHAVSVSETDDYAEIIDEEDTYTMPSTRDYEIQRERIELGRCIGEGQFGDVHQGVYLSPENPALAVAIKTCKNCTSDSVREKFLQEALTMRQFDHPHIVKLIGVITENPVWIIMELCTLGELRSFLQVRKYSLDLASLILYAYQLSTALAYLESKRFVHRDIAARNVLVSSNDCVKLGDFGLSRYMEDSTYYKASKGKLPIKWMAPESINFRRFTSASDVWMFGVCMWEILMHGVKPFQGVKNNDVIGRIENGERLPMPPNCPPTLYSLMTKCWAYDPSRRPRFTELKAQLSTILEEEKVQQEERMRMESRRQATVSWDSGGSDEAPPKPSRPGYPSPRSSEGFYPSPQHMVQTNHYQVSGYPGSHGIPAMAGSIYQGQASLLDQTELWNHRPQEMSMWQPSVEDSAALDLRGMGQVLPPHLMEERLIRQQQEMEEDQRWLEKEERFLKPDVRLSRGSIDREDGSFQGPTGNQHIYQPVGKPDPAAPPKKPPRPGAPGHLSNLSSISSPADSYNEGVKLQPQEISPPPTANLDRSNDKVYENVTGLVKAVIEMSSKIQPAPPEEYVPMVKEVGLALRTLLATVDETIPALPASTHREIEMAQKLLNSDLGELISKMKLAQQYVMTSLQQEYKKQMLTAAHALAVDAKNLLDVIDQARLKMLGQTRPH

For `Cc1nc(Nc2ncc(C(=O)Nc3c(C)cccc3Cl)s2)cc(N2CCN(CCO)CC2)n1`, the inhibition result (in assay [1]; with 4T1 [3]) was “inactive” each time. Moreover, the inhibition result in the assay on 4T1 [2] was “Dose-Dependent Effect”.

Source of the values: ChEMBL document CHEMBL5715945 (Cancer Biol Ther, 2010).
